# Where a SMILES comes first, the peptide text is derived from it.
# How the values were obtained:
# [1] = T.P.Tischio et al. 1979; cited from earlier work
# [2] = tested on: spleen cells of mice incubated with SRBC; experiment: Plaque forming cells test; format: in vivo
# Protocol: As the in vivo test, the so-called "plaque forming cells" test described by N. Jerne (same reference as above), has been used. The test is carried out incubating spleen cells of mice who had received the test peptides, with SRBC and counting the number of plaques formed. In the actual practice, groups of 3 mice each, received about 1 ng/mouse of test peptide i.p. one hour after the antigen (SRBC) inoculation. Four days after this treatment, the spleen cells are removed and the test is immediately carried out.
# The "plaque forming cells" test has been repeated also by treating the test mice with TP5 or with the corresponding retro-inverso analog TP5-RI1-2, three days before antigen (SRBC) injection.
# cord blood cells (CBC) = experiment: Rosette E formation test with sheep red blood cells; format: cell-based, human; settings: overnight at 37° C.; for % formation of Rosette E: 5% CO2, blank 23; for % of live cells after incubation: 5% CO2, blank 100
# Text: In particular, as the in vitro test, the Rosette E formation test has been performed both on peripheral blood […] (PBMC) and on cord blood cells (CBC). The CBC used give a percentage of Rosette E formation with sheep red blood cells (SRBC) of 20-40%. The test is based on the capability of human T cells of forming Rosette E with SRBC. The assay which has been carried out according to the metodology described by O.G.Bier at al. in Fundamentals of Immunology--Springer-Verlag (1981), consists in the incubation of CBC, with or without the test peptides, overnight at 37° C. in the presence of 5% CO2.
# in vitro = settings: human, heparinized human plasma
# Protocol: Incubations are carried out at 37° C., and aliquots (100 μl each) were collected at time intervals, blocked by treatment with 10% trifluoroacetic acid and centrifuged (10,000 rpm)
# for 5'. Aliquots from the supernatant were assayed . by chromatography and the concentration of the test peptide at the different times was measured.
# immune response = settings: thymectomized mice, preliminary in vivo tests; L.Kisfaludy et al. 1983; cited from earlier work
# [3] = mice, about 1 ng/mouse i.p. one hour after antigen (SRBC) inoculation, spleen cells four days later, blank 4.62
# [4] = mice, about 1 ng/mouse i.p. one hour after antigen (SRBC) inoculation, spleen cells four days later, blank 42.000
molecule,measurement,setting,value
"CC(C)[C@H](NC(=O)[C@H](CC(=O)O)NC(=O)[C@H](CCCCN)NC(=O)[C@@H](N)CCCN=C(N)N)C(=O)N[C@@H](Cc1ccc(O)cc1)C(=O)O [TP5, H-Arg-Lys-Asp-Val-Tyr-OH] (H-RKDVY-OH)",half-life in serum,[1],approximately 1.5 minute
same,Log Number of plaques,"[2]; mice treated three days before antigen (SRBC) injection, blank 4.64",4.79
same,Number of plaques formed,"[2]; mice treated three days before antigen (SRBC) injection, blank 44.000",62.000
same,Log Number of plaques,[2]; [3],4.68
same,Number of plaques formed,[2]; [4],48.375
same,% formation of Rosette E,cord blood cells (CBC); 10 ng/ml,28%
same,% of live cells after incubation,cord blood cells (CBC); 10 ng/ml,65%
same,% formation of Rosette E,cord blood cells (CBC); 100 ng/ml,33%
same,% of live cells after incubation,cord blood cells (CBC); 100 ng/ml,65%
"CC(C)[C@H](NC(=O)[C@H](CC(=O)O)NC(=O)C(CCCCN)C(=O)N[C@@H](N)CCCNC(=N)N)C(=O)N[C@@H](Cc1ccc(O)cc1)C(=O)O (stereo partly drawn) [TP5-RI1-2, AcOH·H-gArg-(R,S)mLys-Asp-Val-Tyr--OH]",half-life,in vitro,32 min
"N=C(N)NCCC[C@H](N)C(=O)N[C@@H](CCCCN)C(=O)N[C@@H](CC(=O)O)C(=O)O [TP5^(1-3), H-Arg-Lys-Asp-OH] (H-Arg-Lys-Asp-OH)",Log Number of plaques,[2]; [3],4.67
same,Number of plaques formed,[2]; [4],48.917
same,restoration of the immune response,immune response,able to restore the immune response in thymectomized mice
"AcOH.multidot.H-gArg-(R,S)mLys-Asp--OH [TP5^(1-3) -RI1-2]",Log Number of plaques,[2]; [3],4.78
same,Number of plaques formed,[2]; [4],63.125
